{
  "source": "patent US12115161B2",
  "about": "“Prophylactic and/or therapeutic agent for inflammatory diseases which contains pyrrolopyrimidine compound as active ingredient” (KEIO UNIVERSITY, priority 2018, dated 2024)",
  "key": {"MRL/lpr mice": {"test_system": "MRL/lpr mice", "assay": "Anti-dsDNA antibody titer in blood of MRL/lpr mice (Example 6)", "type": "in vivo", "excerpt": "MRL/lpr mice (purchased from Charles River Laboratories Japan, Inc.) were used as disease model (may also be referred to as collagen disease model or systemic lupus erythematosus (SLE) model) mice developing inflammatory diseases at a high rate and developing multiple autoimmune phenomena. Approximately 80% or more of the MRL/lpr mice develop systemic vasculitis around four to five months old. In addition, it is also known that the same individual spontaneously develops, not only vasculitis, but also glomerulonephritis, arthritis, sialadenitis, and the like (J. Jpn. Coll. Angiol., 2009, 49 11-16.).\nExperiments were performed as follows: • Group 1: administered a physiological saline solution only (saline); • Group 2: administered 0.04 mg/kg of Compound A; • Group 3: administered 0.2 mg/kg of Compound A; • Group 4: administered 1 mg/kg of Compound A. […]\nThe blood was collected over time (0 w, 4 w, 8 w, 12 w, and 16 w) measure the anti-dsDNA antibody titers in the blood. The anti-dsDNA antibody is a kind of antinuclear antibody and is known to be frequently and specifically detected in the serum of SLE patients.\nThe anti-dsDNA antibody titers in the blood were measured with “LBIS™ anti-dsDNA mice ELISA KIT” (AKRDO-061, produced by Fujifilm Corp.). […]"}, "[1]": {"test_system": "human peripheral blood monocytes", "assay": "IL-6 production inhibitory effect of BAFF from human peripheral blood monocytes (Example 3)", "type": "cell-based", "protocol": "Monocytes were isolated from normal healthy human peripheral blood using CD14-microbeads. In the presence of 2 μg/mL recombinant human BAFF (same as Example 2) and Compound A (2 μM and 10 μM) (entire culture scale of 24-well culture plates at 2 mL/well), 5×10^5 of the isolated monocytes were cultured using a 10% FBS/RPMI 1640 culture medium in a 5% CO2 environment at 37° C. for four days. Four days later, the supernatant was removed to determine the IL-6 content in the culture supernatant by IL-6 specific ELISA. For comparison, experiments using BIK-13 instead of Compound A were also performed."}, "[2]": {"test_system": "peripheral blood monocytes and B cells from Sjögren syndrome patients", "assay": "IgG production in coculture of BAFF-stimulated peripheral blood monocytes and B cells (Example 4)", "type": "cell-based, human", "protocol": "Monocytes were isolated from Sjögren syndrome patient peripheral blood using CD14 microbeads, and B cells were isolated from the peripheral blood using CD19 microbeads. Using Transwell® culture plates, 2×10^5 monocytes per well were seeded in the upper plate and 1×10^5 B cells in the lower plate to be cultured in the presence of 2 μg/mL recombinant human BAFF (same as Example 2) and Compound A (1 μM and 10 μM) using a 10% FBS/RPMI 1640 culture medium in a 5% CO2 environment at 37° C. for four days (coculture of the peripheral blood monocytes and the B cells via a membrane). Four days later, the supernatant was removed and the culture supernatant was collected to determine the IgG content in the culture supernatant by ELISA. As controls, experiments in the case of not adding Compound A and the case of adding neither Compound A nor BAFF were also performed. Moreover, for comparison with the effects of Compound A, experiments using BIK-13 instead of Compound A were also performed."}},
  "data": [
    {"molecule": "Cc1c(C)n(Cc2ccccc2)c2ncnc(OC3CCN(CC(=O)NCC4CC4)CC3)c12", "note": "[Compound A, 2-[4-{(7-benzyl-5,6-dimethyl-7H-pyrrolo[2,3-d]pyrimidin-4-yl)oxy}piperidin-1-yl]-N(cyclopropylmethyl)acetamide]", "values": [
      {"measurement": "anti-dsDNA antibody titer inhibitory effect compared with saline", "setting": "MRL/lpr mice; 0.2 mg/kg and 1 mg/kg, 16th week", "result": "significant (respectively, p<0.05) anti-dsDNA antibody titer inhibitory effects"},
      {"measurement": "anti-dsDNA antibody titers in the blood compared with saline", "setting": "MRL/lpr mice; 0.04, 0.2 and 1 mg/kg, intravenous injection five times a week, 8 w or later", "result": "tendency of decrease"},
      {"measurement": "IL-6 production inhibitory effect compared with the control", "setting": "[1]; 2 μM and 10 μM with 2 μg/mL human BAFF, 4 days", "result": "significant (p<0.001) IL-6 production inhibitory effects"},
      {"measurement": "relative amount of IL-6 production", "setting": "[1]; 2 μM, control = 100%", "result": "66.4±0.283", "unit": "%"},
      {"measurement": "IL-6 production inhibitory effect, times stronger than BIK-13", "setting": "[1]; monocytes of normal healthy individuals", "result": "at least 5 times"},
      {"measurement": "IgG antibody production inhibitory effect compared with the control (B+mono+BAFF)", "setting": "[2]; 1 μM and 10 μM with 2 μg/mL human BAFF, 4 days", "result": "significant (p<0.01 or p<0.001) IgG antibody production inhibitory effects"},
      {"measurement": "cancellation of the IgG antibody production enhancement by BAFF", "setting": "[2]; 10 μM, compared with adding neither compound nor BAFF", "result": "completely cancelled and further the IgG antibody production was inhibited below the basal level"},
      {"measurement": "inhibitory effect on IgG antibody production, times stronger than BIK-13", "setting": "[2]; coculture system of Example 4", "result": "approximately 10 times"}
    ]}
  ]
}
